Assay results reported in article PMC12118337, “Development of a Peptide Inhibitor Targeting the C‐SH2 Domain of the SHP2 Phosphatase” (Chembiochem, 2025).
pKd: −log10 of the molar value. Residues, ends and D or L forms follow the SMILES beside them. *: point of attachment. 5FAM = O=C1OC2(c3ccc(O)cc3Oc3cc(O)ccc32)c2ccc(C(=O)*)cc21; X1 = O=C(O)C(C(=O)O)*

Biological target: T1, SHP2 N‐SH2 domain (Homo sapiens, UniProt Q06124)
T1 construct: SHP2 N-SH2 domain (1–105), C-SH2 domain (106–220), PTP domain (224–541) and; His6 (pETM22 vector) (N, cleaved yes); made in house; host or cells: E. coli BL21(DE3)
T1 sequence (Q06124 1-105): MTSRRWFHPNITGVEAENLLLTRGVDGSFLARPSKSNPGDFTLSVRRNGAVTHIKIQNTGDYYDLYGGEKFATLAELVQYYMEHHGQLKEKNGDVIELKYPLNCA
Assay: Fluorescence polarization (FP) binding assay, SHP2 N-SH2 domain
Settings: 100 nM FAM-labelled peptide, increasing N-SH2 protein, 50 mM HEPES pH 7.5, 150 mM NaCl, 1 mM EDTA, 0.05% Tween 20, FP at 10 min, three independent experiments in technical triplicates, read-out: K D ± SEM, N‐SH2 (FP)
Protocol: buffer and stored in 5 mL binding buffer at 4°C. His-tagged 3C protease (0.5 mg; EMBL) was added to the pooled eluted fractions and dialysed using Spectra Por Dialysis Tubing (MWCO 6-8 kDa, 23 mm; Spectrum Labs) in 1 L of binding buffer at 4°C for 3 hours, then overnight in fresh buffer. A new column was prepared by loading 2 mL Ni-NTA Agarose (Invitrogen) as a 50% slurry in EtOH. The column was washed with 10 mL H2O to remove the EtOH and equilibrated with 10 mL binding buffer. The protein/3C protease mixture was loaded onto the column and incubated for 1 hour at 4°C on a rocker. The flow through containing the protein was collected, the column was washed with 100 mL binding buffer and the 3C protease was eluted with 5 mL elution buffer. Protein purification was monitored by SDS-PAGE using NuPAGE 4-12% Bis-Tris Protein Gels (Invitrogen) run in MOPS buffer (50 mM MOPS, 50 mM Tris-HCl pH 7.7, 1 mM EDTA, 0.1% SDS) followed by Coomassie staining using Coomassie Brilliant Blue (Roth). The purified protein was dialysed into the final storage buffer (50 mM HEPES pH 7.5, 150 mM NaCl, 2 mM DTT, 20% glycerol). Aliquots were prepared and stored at -80°C until required. […]
4. Fluorescence polarization
Fluorescence polarization (FP) was used to measure the binding of FAM-labelled peptides to the SHP2 C-SH2, SHP2 N-SH2, SHP2 PTP, CSK SH2 or Src SH2 domains. Each peptide was added to increasing concentrations of SHP2 C-SH2, SHP2 N-SH2, SHP2 PTP, CSK SH2 or Src SH2 protein in FP buffer (50 mM HEPES pH 7.5, 150 mM NaCl, 1 mM EDTA, 0.05% Tween 20) to give a final peptide […]
concentration of 100 nM in a final volume of 200 µL. For baseline subtraction, each peptide was added to FP buffer, instead of protein, with a final peptide concentration of 100 nM in a final volume of 200 µL. Samples were mixed gently then 3 x 60 µL of each sample was transferred into triplicate wells in a 96-well plate (OptiPlate-96 F Black; PerkinElmer). The FP was immediately measured on a Synergy H1 Microplate Reader (BioTek) with the excitation and emission monitored at 485 nm and 528 nm, respectively, over 30 minutes. FP values were automatically calculated by the Gen5 3.03 (BioTek) software associated with the microplate reader. Data were analysed in Excel 2016 by subtracting baseline values from FP values at 10 minutes. Data were then further analysed in GraphPad Prism 6 by plotting the baseline subtracted FP values against the protein concentration and fitting the data to a variable slope model of non-linear regression to obtain the KD values. Data are from three independent experiments, each performed in technical triplicates.
5. Isothermal titration calorimetry […]
Analysis Software (Malvern Panalytical). For the data analysis, a 1:1 binding stoichiometry between the Ac-ITSM(pTyr) and SH2 domain was assumed. ITC measurements were performed once.

- pKd: < 4.49
Structure (SMILES): CC[C@H](C)[C@H](NC(=O)[C@@H](NC(=O)[C@H](C)NC(=O)[C@H](Cc1ccc(OC(C(=O)O)C(=O)O)cc1)NC(=O)[C@H](CCC(=O)O)NC(=O)[C@@H](NC(=O)[C@H](CCC(N)=O)NC(=O)c1ccc2c(c1)C(=O)OC21c2ccc(O)cc2Oc2cc(O)ccc21)[C@@H](C)O)[C@@H](C)O)C(=O)N[C@@H](CCCCN)C(=O)N[C@@H](Cc1c[nH]cn1)C(=O)N1CCC[C@H]1C(N)=O [peptide 26] (5FAM-QTEY(X1)ATIKHP-NH2)
